From patent publication US4971965A, “Antibiotics TAN-1057” (Takeda Chemical Industries, Ltd., priority 1988, dated 1990)
Converted amounts (≈) assume the structure as drawn. Where a name gives a salt, the structure may show the parent alone.

Key:
[1] = test system: Acinetobacter calcoaceticus IFO 12552; type: cell-based; settings: IFO12552, agar dilution, DY medium, pH unadjusted, approx. 10^6 CFU/ml, read-out: Minimum Inhibitory Conc. (MIC)
Protocol: (§1) (Note 1) Measurement was conducted by employing a medium consisting of DY
(§2) medium [Bacto Antibiotic Medium 3 (Difco Laboratories, USA)(17.5 g), Bact
(§3) yeast extract(Difco Laboratories, USA)(5.0 g) and distilled water(pH
(§4) unadjusted)(1000 ml)], using approximately 10^6 colony forming unit/m
(§5) of inoculum, by means of the agar dilution method.

Aeromonas caviae NCW = type: cell-based; settings: agar dilution, DY medium, pH unadjusted, approx. 10^6 CFU/ml, read-out: Minimum Inhibitory Conc. (MIC)
Protocol: as §1, §2, §3, §4, §5

Bacillus cereus FDA 5 = type: cell-based; settings: FDA5, agar dilution, DY medium, pH unadjusted, approx. 10^6 CFU/ml, read-out: Minimum Inhibitory Conc. (MIC)
Protocol: as §1, §2, §3, §4, §5

[2] = test system: Bacillus megaterium IFO 12108; type: cell-based; settings: Priestia megaterium, IFO12108; agar dilution; DY medium, pH unadjusted; approx. 10^6 CFU/ml; read-out: Minimum Inhibitory Conc. (MIC)
Protocol: as §1, §2, §3, §4, §5

[3] = test system: Bacillus subtilis NIHJ PCI 219; type: cell-based; settings: agar dilution, DY medium, pH unadjusted, approx. 10^6 CFU/ml, read-out: Minimum Inhibitory Conc. (MIC)
Protocol: as §1, §2, §3, §4, §5

Escherichia coli LD-2 = type: cell-based; settings: LD2, agar dilution, DY medium, pH unadjusted, approx. 10^6 CFU/ml, read-out: Minimum Inhibitory Conc. (MIC)
Protocol: as §1, §2, §3, §4, §5

[4] = test system: Escherichia coli NIHJ JC 2; type: cell-based; settings: NIHJJC2, agar dilution, DY medium, pH unadjusted, approx. 10^6 CFU/ml, read-out: Minimum Inhibitory Conc. (MIC)
Protocol: as §1, §2, §3, §4, §5

[5] = test system: Klebsiella pnemoniae IFO 3317; type: cell-based; settings: IFO3317, agar dilution, DY medium, pH unadjusted, approx. 10^6 CFU/ml, read-out: Minimum Inhibitory Conc. (MIC)
Protocol: as §1, §2, §3, §4, §5

[6] = test system: Micrococcus luteus IFO 12708; type: cell-based; settings: IFO12708, agar dilution, DY medium, pH unadjusted, approx. 10^6 CFU/ml, read-out: Minimum Inhibitory Conc. (MIC)
Protocol: as §1, §2, §3, §4, §5

[7] = test system: Proteus vulgaris IFO 3988; type: cell-based; settings: IFO3988, agar dilution, DY medium, pH unadjusted, approx. 10^6 CFU/ml, read-out: Minimum Inhibitory Conc. (MIC)
Protocol: as §1, §2, §3, §4, §5

[8] = test system: Pseudomonas aeruginosa IFO 3080; type: cell-based; settings: IFO3080, agar dilution, DY medium, pH unadjusted, approx. 10^6 CFU/ml, read-out: Minimum Inhibitory Conc. (MIC)
Protocol: as §1, §2, §3, §4, §5

[9] = test system: Salmonella typhimurium IFO 12529; type: cell-based; settings: Salmonella enterica; agar dilution; DY medium, pH unadjusted; approx. 10^6 CFU/ml; read-out: Minimum Inhibitory Conc. (MIC)
Protocol: as §1, §2, §3, §4, §5

[10] = test system: Staphylococcus aureus FDA 209P; type: cell-based; settings: FDA209P, agar dilution, DY medium, pH unadjusted, approx. 10^6 CFU/ml, read-out: Minimum Inhibitory Conc. (MIC)
Protocol: as §1, §2, §3, §4, §5

[11] = test system: Staphylococcus epidermidis IFO 3762; type: cell-based; settings: IFO3762, agar dilution, DY medium, pH unadjusted, approx. 10^6 CFU/ml, read-out: Minimum Inhibitory Conc. (MIC)
Protocol: as §1, §2, §3, §4, §5

[12] = test system: Streptococcus faecalis IFO 3989; type: cell-based; settings: Enterococcus faecalis, IFO3989; agar dilution; DY medium, pH unadjusted; approx. 10^6 CFU/ml; read-out: Minimum Inhibitory Conc. (MIC)
Protocol: as §1, §2, §3, §4, §5

[13] = Conversion in aqueous solution; type: physicochemical; settings: for conversion of TAN-1057C and D: especially aqueous alkaline solution, by HPLC
Description: For example, in case that the mixture of TAN-1057A and B is isolated as crystals of the sulfate, the ratio of TAN-1057A and B is about 6 to 8:4 to 2.
The term "Antibiotics TAN-1057" in the present specification includes also a mixture which contains TAN-1057A, B, C and D in an optional combination and an optional ratio thereof.

Solubility = type: physicochemical
Acidity or basicity = type: physicochemical

Compound	MIC [1]	MIC (Aeromonas caviae NCW)	MIC (Bacillus cereus FDA 5)	MIC [2]	MIC [3]	MIC [4]	MIC [5]	MIC [6]	MIC [7]	MIC [8]	MIC [9]	MIC [10]	MIC [11]	MIC [12]	Solubility (Solubility; acetone)	Solubility (Solubility; diethyl ether)	Solubility (Solubility; dimethylsulfoxide)	Solubility (Solubility; ethyl acetate)	Solubility (Solubility; methanol)	MIC (Escherichia coli LD-2)	also measured
CN(C(=O)C[C@@H](N)CCCNC(=N)N)[C@@H]1CNC(NC(N)=O)=NC1=O [TAN-1057B]	100 µg/mL (≈ 281 µM)	25 µg/mL (≈ 70.3 µM)	100 µg/mL (≈ 281 µM)	50 µg/mL (≈ 141 µM)	50 µg/mL (≈ 141 µM)	> 100 µg/mL	> 100 µg/mL	12.5 µg/mL (≈ 35.2 µM)	> 100 µg/mL	> 100 µg/mL	> 100 µg/mL	25 µg/mL (≈ 70.3 µM)	3.13 µg/mL (≈ 8.81 µM)	50 µg/mL (≈ 141 µM)						25 µg/mL (≈ 70.3 µM)	conversion of TAN-1057A and B into each other ([13]; room temperature): converted easily each other
CN1C(=O)C[C@H](CCCNC(=N)N)NC(=O)[C@H]1CNC(=N)NC(N)=O [TAN-1057C dihydrochloride]															Sparingly soluble	Sparingly soluble	Soluble	Sparingly soluble	Soluble		Solubility (Solubility; water): Readily soluble; Acidity or basicity (Acidity or basicity): neutral
CN1C(=O)C[C@H](CCCNC(=N)N)NC(=O)[C@H]1CNC(=N)NC(N)=O [TAN-1057C]	> 100 µg/mL	50 µg/mL (≈ 141 µM)	> 100 µg/mL	> 100 µg/mL	> 100 µg/mL	> 100 µg/mL	> 100 µg/mL	12.5 µg/mL (≈ 35.2 µM)	> 100 µg/mL	> 100 µg/mL	> 100 µg/mL	50 µg/mL (≈ 141 µM)	6.25 µg/mL (≈ 17.6 µM)	50 µg/mL (≈ 141 µM)						50 µg/mL (≈ 141 µM)	conversion of TAN-1057C and D [13]: converted into TAN-1057B

Second part, led by results:

MIC [1]	MIC (Aeromonas caviae NCW)	MIC (Bacillus cereus FDA 5)	MIC [2]	MIC [3]	MIC [4]	MIC [5]	MIC [6]	MIC [7]	MIC [8]	MIC [9]	MIC [10]	MIC [11]	MIC [12]	Solubility (Solubility; acetone)	Solubility (Solubility; diethyl ether)	Solubility (Solubility; dimethylsulfoxide)	Solubility (Solubility; ethyl acetate)	Solubility (Solubility; methanol)	Compound	MIC (Escherichia coli LD-2)	also measured
														Sparingly soluble	Sparingly soluble	Soluble	Sparingly soluble	Soluble	CN1C(=O)C[C@H](CCCNC(=N)N)NC(=O)[C@@H]1CNC(=N)NC(N)=O [TAN-1057D dihydrochloride]		Solubility (Solubility; water): Readily soluble; Acidity or basicity (Acidity or basicity): neutral
25 µg/mL (≈ 70.3 µM)	6.25 µg/mL (≈ 17.6 µM)	25 µg/mL (≈ 70.3 µM)	12.5 µg/mL (≈ 35.2 µM)	12.5 µg/mL (≈ 35.2 µM)	> 100 µg/mL	> 100 µg/mL	3.13 µg/mL (≈ 8.81 µM)	> 100 µg/mL	> 100 µg/mL	> 100 µg/mL	6.25 µg/mL (≈ 17.6 µM)	0.78 µg/mL (≈ 2.19 µM)	12.5 µg/mL (≈ 35.2 µM)						CN1C(=O)C[C@H](CCCNC(=N)N)NC(=O)[C@@H]1CNC(=N)NC(N)=O [TAN-1057D]	12.5 µg/mL (≈ 35.2 µM)	conversion of TAN-1057C and D [13]: converted into TAN-1057B and TAN-1057A, respectively
